Assay results: PubChem BioAssay AID330 (DTP/NCI, 2004)
Several values for one entry are separate records, joined by “and”; a condition that tells them apart may be missing. Identical values can stand only once. Toxic doses and inconclusive results are not listed.

Test system: P388 leukemia ip, CD2F1 mice, survival T/C
Assay: NCI In Vivo Anticancer Drug Screen. Data for tumor model P388 Leukemia (intraperitoneal) in CD2F1 (CDF1) mice
Settings: endpoint: median survival time, higher = longer survival
Outline: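 Mice carrying the transplanted tumor received test compound or vehicle. Survival was recorded in each group, and the value is the treated-group measurement divided by that of the vehicle-treated control group.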

[1] = dose: 50.0 mg/kg/injection, schedule: Q01DX005 (ip), vehicle: saline with Tween-80
[2] = dose: 100.0 mg/kg/injection, schedule: Q01DX005 (ip), vehicle: saline with Tween-80
[3] = dose: 200.0 mg/kg/injection, schedule: Q01DX005 (ip), vehicle: saline with Tween-80
[4] = dose: 100.0 mg/kg/injection, schedule: Q01DX001 (ip), vehicle: saline
[5] = dose: 200.0 mg/kg/injection, schedule: Q01DX001 (ip), vehicle: saline
[6] = dose: 400.0 mg/kg/injection, schedule: Q01DX001 (ip), vehicle: saline
[7] = dose: 12.5 mg/kg/injection, schedule: Q01DX005 (ip), vehicle: saline with Tween-80
[8] = dose: 25.0 mg/kg/injection, schedule: Q01DX005 (ip), vehicle: saline with Tween-80
[9] = dose: 50.0 mg/kg/injection, schedule: Q01DX009 (ip), vehicle: saline with Tween-80
[10] = dose: 25.0 mg/kg/injection, schedule: Q01DX009 (ip), vehicle: saline
[11] = dose: 60.0 mg/kg/injection, schedule: Q01DX005 (ip), vehicle: saline with Tween-80
[12] = dose: 120.0 mg/kg/injection, schedule: Q01DX005 (ip), vehicle: saline with Tween-80
[13] = dose: 50.0 mg/kg/injection, schedule: Q01DX009 (ip), vehicle: saline

COC(=O)[C@@]12OC[C@]34[C@H]([C@@H](O)[C@@H]1O)[C@@]1(C)CC(=O)C(O)=C(C)[C@@H]1C[C@H]3OC(=O)[C@H](OC(=O)C(N)Cc1ccccc1)[C@@H]24 (some centres not stated)
T/C (dose: 0.5 mg/kg/injection, schedule: Q01DX005 (ip), vehicle: Klucel (hydroxypropylcellulose) (HPC)): 107 % of control | T/C (dose: 1.0 mg/kg/injection, schedule: Q01DX005 (ip), vehicle: Klucel (hydroxypropylcellulose) (HPC)): 103 % of control and 107 % of control | T/C (dose: 2.0 mg/kg/injection, schedule: Q01DX005 (ip), vehicle: Klucel (hydroxypropylcellulose) (HPC)): 108 % of control and 119 % of control | T/C (dose: 4.0 mg/kg/injection, schedule: Q01DX005 (ip), vehicle: Klucel (hydroxypropylcellulose) (HPC)): 112 % of control | T/C (dose: 8.0 mg/kg/injection, schedule: Q01DX005 (ip), vehicle: Klucel (hydroxypropylcellulose) (HPC)): 110 % of control | T/C (dose: 125.0 micrograms/kg/injection, schedule: Q01DX005 (ip), vehicle: Klucel (hydroxypropylcellulose) (HPC)): 96 % of control | T/C (dose: 250.0 micrograms/kg/injection, schedule: Q01DX005 (ip), vehicle: Klucel (hydroxypropylcellulose) (HPC)): 107 % of control | T/C (dose: 500.0 micrograms/kg/injection, schedule: Q01DX005 (ip), vehicle: Klucel (hydroxypropylcellulose) (HPC)): 98 % of control | T/C (dose: 1000.0 micrograms/kg/injection, schedule: Q01DX005 (ip), vehicle: Klucel (hydroxypropylcellulose) (HPC)): 107 % of control

CCC(CC)C1SCC(=O)N1c1nncs1 (configuration not stated)
T/C [1]: 99 % of control | T/C [2]: 105 % of control | T/C [3]: 102 % of control

Cc1c2cccc(F)c2c[n+]2ccccc12
T/C (dose: 6.25 mg/kg/injection, schedule: Q01DX009 (ip), vehicle: Klucel (hydroxypropylcellulose) (HPC)): 96 % of control | T/C (dose: 12.5 mg/kg/injection, schedule: Q01DX009 (ip), vehicle: Klucel (hydroxypropylcellulose) (HPC)): 103 % of control | T/C (dose: 25.0 mg/kg/injection, schedule: Q01DX009 (ip), vehicle: Klucel (hydroxypropylcellulose) (HPC)): 102 % of control and 113 % of control

COc1ccc(CS(=O)(=O)c2cncnc2N)cc1OC
T/C [4]: 106 % of control | T/C [5]: 96 % of control | T/C [6]: 101 % of control

CCN(CC)/C([Se])=N/N=C(\C)c1ccccn1
T/C (dose: 100.0 mg/kg/injection, schedule: Q04DX003 (ip), vehicle: Klucel (hydroxypropylcellulose) (HPC)): 108 % of control | T/C (dose: 200.0 mg/kg/injection, schedule: Q04DX003 (ip), vehicle: Klucel (hydroxypropylcellulose) (HPC)): 102 % of control

Cc1c(O)ccc(N=O)c1O
T/C (dose: 6.25 mg/kg/injection, schedule: Q01DX005 (ip), vehicle: saline with Tween-80): 98 % of control | T/C [7]: 94 % of control | T/C [8]: 90 % of control | T/C [1]: 93 % of control

O=C1c2ccccc2-c2nc3ccccc3n21
T/C [4]: 100 % of control | T/C (dose: 100.0 mg/kg/injection, schedule: Q04DX002 (ip), vehicle: saline with Tween-80): 100 % of control | T/C [5]: 108 % of control | T/C (dose: 200.0 mg/kg/injection, schedule: Q04DX002 (ip), vehicle: saline with Tween-80): 106 % of control | T/C [6]: 106 % of control | T/C (dose: 400.0 mg/kg/injection, schedule: Q04DX002 (ip), vehicle: saline with Tween-80): 100 % of control

CCCCCCCCCCCC(=O)NN
T/C [9]: 95 % of control | T/C (dose: 100.0 mg/kg/injection, schedule: Q04DX003 (ip), vehicle: saline with Tween-80): 100 % of control | T/C (dose: 200.0 mg/kg/injection, schedule: Q04DX003 (ip), vehicle: saline with Tween-80): 100 % of control

COc1cc(N(CCCl)CCCl)c(OC)cc1C=Nc1ccccc1C(=O)O
T/C (dose: 3.12 mg/kg/injection, schedule: Q01DX009 (ip), vehicle: suspension in saline): 114 % of control | T/C [10]: 182 % of control

Cc1ccc(C)c(OP2(=O)NC3CCCCC3N2)c1 (configuration not stated)
T/C (dose: 100.0 mg/kg/injection, schedule: Q04DX002 (ip), vehicle: Klucel (hydroxypropylcellulose) (HPC)): 91 % of control | T/C (dose: 200.0 mg/kg/injection, schedule: Q04DX002 (ip), vehicle: Klucel (hydroxypropylcellulose) (HPC)): 89 % of control

Cc1ccc(S(=O)(=O)N/N=C2\COC(C)C2)cc1 (configuration not stated)
T/C [1]: 93 % of control | T/C [2]: 91 % of control

CCCCCCCCCCCCCCCC(=O)N(CCCN)C(C)(C)CCC(C)(C)N(CCCN)C(=O)CCCCCCCCCCCCCCC
T/C (dose: 1.56 mg/kg/injection, schedule: Q01DX009 (ip), vehicle: water): 101 % of control | T/C (dose: 3.13 mg/kg/injection, schedule: Q01DX009 (ip), vehicle: water): 107 % of control | T/C (dose: 6.25 mg/kg/injection, schedule: Q01DX009 (ip), vehicle: water): 114 % of control | T/C (dose: 12.5 mg/kg/injection, schedule: Q01DX009 (ip), vehicle: water): 113 % of control | T/C (dose: 25.0 mg/kg/injection, schedule: Q01DX009 (ip), vehicle: water): 93 % of control

CC(C)(C)c1cc(C(c2cc3c(cc2O)OCO3)N2CCOCC2)cc(C(C)(C)C)c1O (configuration not stated)
T/C [11]: 102 % of control and 111 % of control and 112 % of control | T/C [12]: 105 % of control and 111 % of control and 115 % of control | T/C (dose: 240.0 mg/kg/injection, schedule: Q01DX005 (ip), vehicle: saline with Tween-80): 104 % of control | T/C (dose: 480.0 mg/kg/injection, schedule: Q01DX005 (ip), vehicle: saline with Tween-80): 123 % of control

CCCCCCCCCCCCCCCc1ccc(OC)cc1
T/C (dose: 7.5 mg/kg/injection, schedule: Q01DX009 (ip), vehicle: saline with Tween-80): 90 % of control | T/C (dose: 15.0 mg/kg/injection, schedule: Q01DX009 (ip), vehicle: saline with Tween-80): 94 % of control | T/C (dose: 30.0 mg/kg/injection, schedule: Q01DX009 (ip), vehicle: saline with Tween-80): 104 % of control

CN=C(N)N/N=C(\C)c1ccc(-c2ccccc2)cc1
T/C (dose: 25.0 mg/kg/injection, schedule: Q04DX002 (ip), vehicle: saline with Tween-80): 105 % of control | T/C (dose: 50.0 mg/kg/injection, schedule: Q04DX002 (ip), vehicle: saline with Tween-80): 106 % of control

ICC1CCCCC1CI (configuration not stated)
T/C [1]: 106 % of control | T/C [2]: 99 % of control | T/C [3]: 104 % of control

Cc1nsc(N)n1
T/C (dose: 6.25 mg/kg/injection, schedule: Q01DX009 (ip), vehicle: saline): 100 % of control | T/C (dose: 6.25 mg/kg/injection, schedule: Q01DX009 (ip), vehicle: suspension in saline): 94 % of control | T/C (dose: 12.5 mg/kg/injection, schedule: Q01DX009 (ip), vehicle: saline): 100 % of control and 98 % of control | T/C (dose: 12.5 mg/kg/injection, schedule: Q01DX009 (ip), vehicle: suspension in saline): 101 % of control | T/C [10]: 100 % of control and 98 % of control | T/C (dose: 25.0 mg/kg/injection, schedule: Q01DX009 (ip), vehicle: suspension in saline): 102 % of control | T/C [13]: 99 % of control and 98 % of control | T/C (dose: 50.0 mg/kg/injection, schedule: Q01DX009 (ip), vehicle: suspension in saline): 103 % of control

O=C1CCCCC=C1Cl
T/C [13]: 96 % of control | T/C (dose: 100.0 mg/kg/injection, schedule: Q01DX009 (ip), vehicle: saline): 98 % of control | T/C (dose: 200.0 mg/kg/injection, schedule: Q01DX009 (ip), vehicle: saline): 108 % of control

N#Cc1c(NC(=O)Nc2ccc(F)cc2F)sc(=S)c2c1CCCC2
T/C [9]: 100 % of control | T/C (dose: 100.0 mg/kg/injection, schedule: Q01DX009 (ip), vehicle: saline with Tween-80): 99 % of control

COc1ccc(Cc2cc(N=NC(N)=O)c(OC)cc2O)cc1
T/C [7]: 93 % of control | T/C [8]: 87 % of control | T/C [1]: 88 % of control

CN(C)CCCC1(O)c2ccccc2Sc2cc(Cl)ccc21 (configuration not stated)
T/C [11]: 100 % of control | T/C [12]: 96 % of control

CS/C(=C/c1ccc2ccccc2[n+]1C)N1CCCCC1
T/C (dose: 0.78 mg/kg/injection, schedule: Q01DX005 (ip), vehicle: saline with Tween-80): 109 % of control | T/C (dose: 1.56 mg/kg/injection, schedule: Q01DX005 (ip), vehicle: saline with Tween-80): 116 % of control

Cc1ccc2nc(/N=C/c3ccc(N(C)C)cc3)sc2c1
T/C (dose: 100.0 mg/kg/injection, schedule: Q04DX003 (ip), vehicle: saline): 109 % of control | T/C (dose: 200.0 mg/kg/injection, schedule: Q04DX003 (ip), vehicle: saline): 107 % of control | T/C (dose: 400.0 mg/kg/injection, schedule: Q04DX003 (ip), vehicle: saline): 101 % of control

CC1=CC(=O)C2OC(=O)CC3C=CCC1C32C (configuration not stated)
T/C (dose: 25.0 mg/kg/injection, schedule: Q01DX005 (ip), vehicle: Klucel (hydroxypropylcellulose) (HPC)): 99 % of control | T/C (dose: 50.0 mg/kg/injection, schedule: Q01DX005 (ip), vehicle: Klucel (hydroxypropylcellulose) (HPC)): 103 % of control | T/C (dose: 100.0 mg/kg/injection, schedule: Q01DX005 (ip), vehicle: Klucel (hydroxypropylcellulose) (HPC)): 103 % of control
